Source: US20040266659A1, “[…] THAT ENHANCE RECALL AND LUCIDITY DURING DREAMING” (priority 2003, published 2004)
Like-named read-outs stand apart in the source and are kept apart here.

Legend:
[1] = system: normal volunteers self-selected for high dream recall and interest in lucid dreaming; assay: randomized, double blind, placebo-controlled crossover trial of donepizil for lucid dreaming; format: in vivo, human; details: for odds of lucid dreaming: placebo 0.031
Excerpt: Subjects collected dream content and other self-report measures on three nights, separated by a washout period of at least one week. […] After each spontaneous awakening during the three nights, Ss evaluated dream content on a range of measures including bizarreness, complexity, and intensity, affect, cognitive clarity, lucidity, and control. They also estimated sleep quality, insomnia, and degree of any adverse effects.

lucid dreaming = system: lucid dreaming
Excerpt: These include: 1. Using a cholinergic agonist (e.g., nicotine).

REM sleep = details: cited from earlier work
[2] = rivastigmin 6-12 mg dose, galantamine 8-16 mg

For `COc1cc2c(cc1OC)C(=O)C(CC1CCN(Cc3ccccc3)CC1)C2` (centres unmarked) [donepizil], which “levels of dream variables, 5 mg dose vs placebo” value ([1]; 5 mg compared to placebo) is on record?
The value was “significant elevations”.

And the “odds of lucid dreaming” value ([1]; 5 mg)?
Its value is 0.429.

And the “levels of dream variables, 10 mg dose vs 5 mg dose” value ([1]; 10 mg compared to 5 mg)?
Its value is “significantly higher levels”.

What about the “odds of lucid dreaming” value ([1]; 10 mg) of the same compound?
The value was 0.754.

And the “self-reported cognitive clarity, self-reflection and lucidity during dreaming, compared to placebo” value ([1]; both 5 and 10 mg dosages)?
Its value is “significantly enhance”.

What about the “frequency of sleep paralysis” value ([1]; donepizil vs placebo) of the same compound?
Its value is “significantly elevated”.

What about the “Ss reporting one or more lucid dreams on the experimental nights” value ([1]; nine of 10 Ss, 5 or 10 mg at bedtime, only one S on a placebo night) of the same compound?
Its value is 90%.

What about the “estimated time awake during the night” value ([1]; of a 9.0 hr night, placebo 126 min, p<0.05) of the same compound?
The value was 176 min.

And the “incidence of adverse events, notably mild insomnia and gastrointestinal symptoms” value ([1]; primarily associated with the higher dose, two subjects nausea, one vomiting)?
The value was “low”.

What about the “cognitive clarity, lucidity, recall, control, bizarreness and visual vividness compared to placebo” value ([1]; self-report after each spontaneous awakening, donepizil vs placebo) of the same compound?
Its value is “significantly elevated”.

And the “increase in estimated time awake during the night” value ([1]; vs placebo, 9.0 hr night, p<0.05)?
Its value is 40%.

What does the source list for `CCN(C)C(=O)Oc1cccc([C@H](C)N(C)C)c1` [Exelon, rivastigmin]?
efficacy compared with Aricept (lucid dreaming; [2]): work as well as; side effects compared with Aricept (lucid dreaming; [2]): perhaps fewer side effects

With `COC(=O)C1=CCCN(C)C1` [arecoline] as the compound, how does the “effect on REM sleep” value (REM sleep; scientific literature studies) read?
Its value is “triggering/intensification of REM sleep”.

For `C[N+](C)(C)CCOC(N)=O` [carbachol], which “effect on REM sleep” value (REM sleep; microinjection in certain locations of the brain, such as the Pons) is on record?
Its value is “elicits extended periods of REM sleep”.

With huperzine as the compound, how does the “outcome of test for lucid dreaming enhancement” value (lucid dreaming; dose correspondence with Aricept not yet worked out) read?
Its value is “promising results”.

For `COc1ccc2c3c1O[C@H]1C[C@@H](O)C=C[C@@]31CCN(C)C2` [galantamine], which “side effects compared with Aricept” value (lucid dreaming; [2]) is on record?
Its value is “perhaps fewer side effects”.
